Columns and labels:
[1] = system: U44069 induced pulmonary hypertension; type: in vivo, sheep
From the text: (§1) The efficacy of benzindene prostaglandins, such as UT-15, for treating pulmonary hypertension can be assessed by determining the hemodynamics associated with pulmonary hypertension. In particular, measurements of pulmonary arterial pressure (PPA), left atrial pressure (PLA), central venous pressure (PCV), systemic arterial pressure (PSYS), heart rate (HR), and cardiac output (CO) are useful in determining the effects of benzindene prostaglandins delivered by inhalation or parenterally.
(§2) Heart rate was determined by measuring the time (seconds) required for 25 heart beats to occur (t25) as indicated by the pulsations on the blood flow meter; the beats per minute (BPM) were calculated by the following equation: […]
(§3) All pressure may be monitored by commercially available transducers, such as Model 1290A HEWLETT PACKARD™ transducer (Andover, Mass.), which is attached to VALIDYNE CD19A Carrier Dmod. Amplifiers (Northridge, Calif.). Cardiac output may be measured by a Transonic Systems T101 Ultrasonic Bloodflow Meter (Ithaca, N.Y.). The pressure and blood flow signals may be recorded on ASTROMED MT-9500 Stripchart Recorder (West Warwick, R.I.) and digitally recorded with a personal computer using Easy Data Acquisition Software (Nashville, Tenn.).
Sheep were used as the animal model of choice for these experiments for a number of reasons. First is the docile nature of sheep. They will stand quietly in metabolic cages without having to utilize tranquilizing drugs, which have the potential to complicate experimental results. Second, sheep are large enough to allow direct measurement of CO, PPA, PLA, PCV, and PSYS. Sheep are also large enough to allow direct aerosolization of substances into the lung via trachoestomy thereby preventing swallowing of drugs and thus eliminating a possible secondary route of administration of UT-15. Third, sheep can tolerate a great amount of instrumentation with little or no discomfort. Fourth, sheep have been utilized for several years as an animal model of pulmonary arterial hypertension and thus, there is a great amount of historical data with which to compare the results. The agent chosen to induce pulmonary arterial hypertension was a PGH2 analog, U44069 (9,11-dideoxy,9α,11α-epoxymethanoprostaglandin F2α). The reasons for using U44069 are that it is a very potent pulmonary vasoconstrictor, its characteristics are very similar to endogenously formed thromboxane A2, and it can be titrated to induce the desired degree of pulmonary vasoconstriction. U44069 was mixed with sterile normal saline immediately prior to being used and was protected from light by wrapping the solution with aluminum foil. The concentration of U44069 was adjusted such that a minimal flow rate of 0.8 ml per min was being infused into the sheep. This was done because more concentrated U44069 would have to be infused at very low rates and often causes “pulses” of U44069 due to the infusion characteristics of roller pumps. The U44069 pulses cause vasoconstriction “spikes” and thus would create induce a non-steady-state.
Six yearling sheep (3 males, 3 females; 21-37 kg) were fasted 18-24 hours and initially anesthetized with a short acting barbiturate (thiopental) to allow intubation of the sheep. Halothane gas anesthesia (1.5-2.5%) was then used for the surgical procedures. Via a left thoracotomy, a Transonic blood flow probe was placed around the main pulmonary artery, silastic catheters placed in the main pulmonary artery and left atrium. After approximately 7 days the sheep were reanesthetized and the left carotid artery cannulated, a Cordis Introducer Sheath inserted in the left jugular vein, and a tracheotomy made. The sheep were allowed to recover for another 3-5 days prior to experimentation. […]

blood platelets = conditions: cited from earlier work
sheep [2] = experiment: Intravenous and aerosolized UT-15 dose response effects on baseline hemodynamics; type: in vivo; conditions: baseline conditions; for central venous pressure (PCV) relative to baseline / pulmonary arterial pressure (PPA) relative to baseline: any dose; for systemic arterial pressure (PSYS): any administration rate; for cardiac output (CO) relative to baseline: any delivery rate
From the text: as §1, §2, §3
Inhalation solutions were prepared by combining 1.25 grams of Sodium Citrate (Hydrous), 0.125 Citric Acid (Anhydrous), 0.05 grams of Sodium Hydroxide (NF/BP), 0.125 grams of UT-15, and approximately 250 ml of Water for Injection according to the following steps.
Working solution was made by adding sterile saline to dilute the UT15 stock solution or placebo to the desired amount (depending on dose desired, weight of sheep, and duration of aerosolizing). This solution was then added to the nebulizer in volumes not exceeding 5 ml until entire amount was used.
Six yearling sheep (3 males, 3 females; 21-37 kg) were fasted 18-24 hours and initially anesthetized with a short acting barbiturate (thiopental) to allow intubation of the sheep. Halothane gas anesthesia (1.5-2.5%) was then used for the surgical procedures. Via a left thoracotomy, a Transonic blood flow probe was placed around the main pulmonary artery, silastic catheters placed in the main pulmonary artery and left atrium. After approximately 7 days the sheep were reanesthetized and the left carotid artery cannulated, a Cordis Introducer Sheath inserted in the left jugular vein, and a tracheotomy made. The sheep were allowed to recover for another 3-5 days prior to experimentation. These sheep were used to allow measurement of pulmonary arterial pressure (PPA), left atrial pressure (PLA), central venous pressure (PCV), systemic arterial pressure (PSYS), heart rate (HR), and cardiac output (CO) after baseline measurements were made for a minimum of 30 minutes.
Two separate experiments were conducted to determine the dose response effects of intravenously infused UT-15 on baseline hemodynamics and aerosolized UT-15 on baseline hemodynamics. For the infusion experimental protocol, after a 30 minute baseline was established, UT-15 was infused intravenously at 3 rates (250, 500 and 1000 ng per kg per min). In three sheep, the infusion rates lasted for 30 minutes each, and for the other three sheep, the infusions were for 60 minutes each.
The aerosolized UT-15 protocol involved establishing a 30 minute baseline, then administering aerosolized UT-15 via a tracheostromy at rates of […] per kg of body weight per min and at an aerosolization rate of 0.28 ml/min. Again, three sheep were aerosolized for 30 minutes and the other three sheep were aerosolized for 60 minutes.

sheep [3] = experiment: as above; type: in vivo; conditions: baseline conditions, aerosolized, 250, 500, and 100 ng per kg per min
[4] = U44069 iv infusion alone, 1 ng per kg per min

CCCCC[C@H](O)/C=C/C1C2COC(C2)C1C/C=C\CCCC(=O)O (stereo partly drawn) [U44069, 9,11-dideoxy,9α,11α-epoxymethanoprostaglandin F2α, reference compound]
left atrial pressure [1, 4]: did not alter left atrial pressure significantly | pulmonary arterial pressure (PPA) relative to baseline [1, 4]: significantly increased | pulmonary vascular resistance (PVR) [1, 4]: dramatic increase

CCCCC[C@H](O)CC[C@@H]1[C@H]2Cc3cccc(OCC(=O)O)c3C[C@H]2C[C@H]1O [UT-15, 9-deoxy-2′,9-alpha-methano-3-oxa-4,5,6-trinor-3,7-(1′,3′-interphenylene)-13,14-dihydro-prostaglandin F1]
anti-aggregatory action on blood platelets (blood platelets): potent anti-aggregatory action | central venous pressure (PCV) relative to baseline (sheep [2]; aerosol): no statistical difference | pulmonary vascular resistance (PVR) (sheep [2]; aerosolized, all 3 delivery rates): significant decrease | systemic arterial pressure (PSYS) (sheep [2]; aerosolized): no significant effect | cardiac output (CO) relative to baseline (sheep [2]; aerosolized): no significant changes | pulmonary arterial pressure (PPA) relative to baseline (sheep [2]; aerosolized, not statistically different): general trend for PPA to decrease | left atrial pressure (PLA) relative to baseline (sheep [2]; aerosolized, mean values increased): neither intravenous nor aerosolized UT-15 caused PLA to significantly change | pulmonary vascular resistance (PVR) (sheep [2]; intravenous): no significant effect | systemic arterial pressure (PSYS) (sheep [2]; intravenous): no significant effect | cardiac output (CO) relative to baseline (sheep [2]; intravenous): no significant changes | central venous pressure (PCV) relative to baseline (sheep [2]; intravenous): no statistical difference | pulmonary arterial pressure (PPA) relative to baseline (sheep [2]; intravenous): same effects | left atrial pressure (PLA) relative to baseline (sheep [2]; intravenous, mean values decreased): neither intravenous nor aerosolized UT-15 caused PLA to significantly change | pulmonary vascular driving pressure (PPA minus PLA) versus baseline (sheep [3]): significant | potency and efficacy in attenuating chemically induced pulmonary hypertension (increase in PVR) ([1]; aerosolized UT-15 compared to intravascularly administered UT-15): greater potency and efficacy | central venous pressure ([1]; during iv U44069, aerosol UT-15, only 500 ng per kg per min): different from the corresponding intravenous UT-15 infusion value | pulmonary arterial pressure (PPA) ([1]; during iv U44069, aerosolized UT-15, 500 and 1000 ng per kg per min): back to normal values | pulmonary vascular resistance (PVR) relative to baseline PVR ([1]; during iv U44069, aerosolized UT-15, any of the three delivery rates): no significant difference | pulmonary arterial pressure (PPA) versus U44069 value ([1]; during iv U44069, intravascular UT-15): decrease significantly | pulmonary vascular resistance (PVR), U44069-induced increase ([1]; during iv U44069, intravenously infused UT-15, 500 and 1000 ng per kg per min): significantly attenuated | left atrial pressure versus U44069 value ([1]; during iv U44069, intravenously infused UT-15, all three delivery rates): significant decrease | peripheral effects (heart rate, cardiac output) ([1]; in vivo): no apparent peripheral effects

From patent US6756033B2, “Method for delivering benzindene prostaglandins by inhalation” (United Therapeutics Corporation, priority 1999, dated 2004)
